Active and inactive are the calls of the source. The calls are words filed in the database; no cut-off is given here.
What was measured:
[1] = system: Severe fever with thrombocytopenia syndrome virus; experiment: In vivo antiviral activity against SFTSV infected in mouse harboring IFNAR1tm1Agt assessed as improvement in lymphocytes percentage treated orally once daily for 7 days; assay type: functional, organism-based; settings: dose 2.5-100 mg/kg, route po, time 7.0 day
[2] = system: Severe fever with thrombocytopenia syndrome virus; experiment: In vivo antiviral activity against SFTSV infected in mouse harboring IFNAR1tm1Agt assessed as improvement in lymphocytes percentage at 300 mg/kg, po qd treated for 7 days relative to control; assay type: functional, organism-based; settings: time 7.0 day

SMILES	Activity [1]	Activity [2]
CC(C)C(=O)OC[C@@]1(F)O[C@@H](n2ccc(=O)n(COC(=O)c3cccnc3)c2=O)[C@H](OC(=O)C(C)C)[C@@H]1OC(=O)C(C)C	Dose-dependent-effect	
NC(=O)c1nc(F)cnc1O		Active
